In publication PMC13267069 (npj Drug Discovery, 2025):

Biological target: CFTR (Homo sapiens, UniProt P13569, G551D)
Experiment: Ussing chamber short-circuit current, FRT cells
Assay type: cell-based

CFTR, sequence (P13569 whole entry G551D): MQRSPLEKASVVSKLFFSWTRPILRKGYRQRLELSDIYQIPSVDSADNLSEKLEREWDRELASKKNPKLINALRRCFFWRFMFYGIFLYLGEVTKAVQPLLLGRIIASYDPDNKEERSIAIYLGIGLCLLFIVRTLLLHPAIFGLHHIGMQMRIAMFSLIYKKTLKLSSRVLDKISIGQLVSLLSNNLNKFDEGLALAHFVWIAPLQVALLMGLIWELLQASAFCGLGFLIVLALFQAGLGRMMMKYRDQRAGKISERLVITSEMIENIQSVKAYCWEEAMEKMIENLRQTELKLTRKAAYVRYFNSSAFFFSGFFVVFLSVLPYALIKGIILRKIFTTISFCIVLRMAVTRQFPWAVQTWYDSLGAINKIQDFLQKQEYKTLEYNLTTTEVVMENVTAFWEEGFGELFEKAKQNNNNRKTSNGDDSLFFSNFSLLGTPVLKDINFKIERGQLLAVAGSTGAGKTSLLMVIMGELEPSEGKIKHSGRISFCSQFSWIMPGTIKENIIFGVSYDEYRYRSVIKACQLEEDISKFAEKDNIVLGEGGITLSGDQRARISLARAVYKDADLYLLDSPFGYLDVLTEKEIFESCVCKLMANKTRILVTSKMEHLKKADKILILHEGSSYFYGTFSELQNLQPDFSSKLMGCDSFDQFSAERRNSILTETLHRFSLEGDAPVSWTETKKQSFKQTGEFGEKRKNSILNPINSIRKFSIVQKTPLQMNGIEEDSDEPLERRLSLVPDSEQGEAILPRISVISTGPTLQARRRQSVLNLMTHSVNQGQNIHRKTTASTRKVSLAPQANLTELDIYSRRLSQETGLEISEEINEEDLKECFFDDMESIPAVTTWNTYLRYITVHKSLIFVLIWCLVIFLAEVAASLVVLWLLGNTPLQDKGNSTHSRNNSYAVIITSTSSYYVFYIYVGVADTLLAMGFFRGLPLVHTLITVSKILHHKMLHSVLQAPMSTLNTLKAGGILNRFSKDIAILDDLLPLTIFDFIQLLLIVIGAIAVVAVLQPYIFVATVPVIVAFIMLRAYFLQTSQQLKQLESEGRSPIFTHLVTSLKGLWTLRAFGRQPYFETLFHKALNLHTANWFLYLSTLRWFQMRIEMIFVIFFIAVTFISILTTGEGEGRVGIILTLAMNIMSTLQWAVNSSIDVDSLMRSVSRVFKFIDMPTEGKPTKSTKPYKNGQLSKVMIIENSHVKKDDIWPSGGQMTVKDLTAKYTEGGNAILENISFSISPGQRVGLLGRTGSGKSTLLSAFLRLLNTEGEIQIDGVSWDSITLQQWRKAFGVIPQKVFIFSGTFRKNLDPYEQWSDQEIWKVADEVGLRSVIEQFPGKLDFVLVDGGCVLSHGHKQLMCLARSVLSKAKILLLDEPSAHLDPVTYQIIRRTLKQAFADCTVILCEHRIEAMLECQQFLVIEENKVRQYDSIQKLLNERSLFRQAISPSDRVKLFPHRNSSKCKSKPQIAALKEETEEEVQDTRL

CC(C)(C)c1cc(C(C)(C)C)c(NC(=O)c2c[nH]c3ccccc3c2=O)cc1O [VX-770]
Ussing chamber short-circuit current, FRT cells: In terms of efficacy as a single agent, uHTS159 is roughly equivalent to VX-770.
